Experimental data: paper PMC5061366, “Metagenomic Analysis of the Sponge Discodermia Reveals the Production of the Cyanobacterial Natural Product Kasumigamide by ‘Entotheonella’” (PLoS ONE, 2016)

How the values were obtained:
Settings in all cases: 1 mM substrate, 1 uM protein, 0.5 mM ATP, 10 mM MgCl2, 32 mM hydroxylamine, 1 mM DTT, pH 7.5, room temperature, 10 min
MakasC-A2 = molecular target: T1, MakasC-A2 (Microcystis aeruginosa, UniProt A0A1L7NR40); assay: malachite green phosphate assay of adenylation (hydroxylamine, pyrophosphatase); format: biochemical
T1 construct: C-A2-PCP tridomain of MakasC (MakasC-CA2P); N-terminal His6 (pCold II), E. coli BLR(DE3)

MakasC-A1 = MakasC-A1 (Microcystis aeruginosa, UniProt A0A1L7NR40)
MakasB-A2 = molecular target: T2, MakasB-A2 (Microcystis aeruginosa, UniProt A0A1L7NR43); assay: malachite green phosphate assay of adenylation (hydroxylamine, pyrophosphatase); format: biochemical
T2 construct: single adenylation domain A2 of MakasB; N-terminal His6-MBP fusion (NhisMBP-pET28b(+)), E. coli BLR(DE3)

MakasA-A1 = molecular target: T3, MakasA-A1 (Microcystis aeruginosa, UniProt A0A1L7NR41); assay: as above; format: biochemical
T3 construct: single adenylation domain A1 of MakasA; N-terminal His6 (pCold II), E. coli BLR(DE3)
T3 sequence (A0A1L7NR41 1-560 limits assumed): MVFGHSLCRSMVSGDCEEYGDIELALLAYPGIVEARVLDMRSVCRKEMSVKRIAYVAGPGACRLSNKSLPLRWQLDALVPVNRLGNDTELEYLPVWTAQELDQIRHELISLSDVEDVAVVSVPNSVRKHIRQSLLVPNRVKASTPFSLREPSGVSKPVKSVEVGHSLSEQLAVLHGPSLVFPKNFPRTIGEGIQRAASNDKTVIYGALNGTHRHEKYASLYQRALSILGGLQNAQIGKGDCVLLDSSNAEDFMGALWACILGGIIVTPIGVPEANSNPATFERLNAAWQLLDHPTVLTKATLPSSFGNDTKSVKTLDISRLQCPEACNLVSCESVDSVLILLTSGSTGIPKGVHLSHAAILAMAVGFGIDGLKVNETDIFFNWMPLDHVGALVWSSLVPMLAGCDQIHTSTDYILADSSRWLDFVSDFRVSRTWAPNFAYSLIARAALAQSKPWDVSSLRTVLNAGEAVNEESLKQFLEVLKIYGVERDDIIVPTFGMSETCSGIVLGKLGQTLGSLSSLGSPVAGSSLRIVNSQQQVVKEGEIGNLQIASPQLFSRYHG

MakasB-A1 = molecular target: T4, MakasB-A1 (Microcystis aeruginosa, UniProt A0A1L7NR43); assay: as above; format: biochemical
T4 construct: C-A1-PCP tridomain of MakasB (MakasB-CA1P); N-terminal His6 (pCold II), E. coli BLR(DE3)

With NC(C(=O)O)C(O)c1ccccc1 (racemic) [DL-threo-3-phenylserine] as the molecule, how does the relative adenylation activity (MakasC-A2) read?
The relative adenylation activity was “MakasC-A2 showed higher selectivity to DL-threo-3-phenylserine (DL-threo-PS) than L-Phe”.

N=C(N)NCCC[C@H](N)C(=O)O [L-Arg] was tested. Which relative adenylation activity (MakasC-A1) did it give?
Its relative adenylation activity is “exhibited catalytic activities selective for PP, β-Ala, L-Trp, and L-Arg, respectively”.

With N[C@@H](Cc1c[nH]c2ccccc12)C(=O)O [L-Trp] as the molecule, how does the relative adenylation activity (MakasB-A2) read?
The relative adenylation activity was “exhibited catalytic activities selective for PP, β-Ala, L-Trp, and L-Arg, respectively”.

How did the relative adenylation activity (MakasA-A1) turn out when O=C(O)C(=O)Cc1ccccc1 [phenyl pyruvic acid] was run?
The relative adenylation activity was “exhibited catalytic activities selective for PP, β-Ala, L-Trp, and L-Arg, respectively”.

How did the relative adenylation activity (MakasB-A1) turn out when NCCC(=O)O [β-Ala] was run?
Its relative adenylation activity is “exhibited catalytic activities selective for PP, β-Ala, L-Trp, and L-Arg, respectively”.
